Source: US20090156625A1, “Novel Use of a Nicotinic Receptor Agonist 156” (AstraZeneca AB, priority 2007, published 2009)
Like-named read-outs stand apart in the source and are kept apart here.

Assays:
in vivo [1] = settings: mouse
Procedure: In order to gain confidence in predicting circulating levels, mouse PK at 1 mg/kg oral dosing was subsequently carried out.
Blood concentrations are given in nM.

in vivo [2] = settings: rat
Excerpt: (§4) This Fabs parameter was then adjusted to bioavailability (F) by correction for hepatic extraction. […] The clinical dosing frequency desired was assumed to be once daily.

MMP13 = assay: Histamine induced acute articular inflammation in mouse: MMP13 fluorokine ELISA of cartilage extract; type: in vivo; settings: for cartilage extract MMP13 levels: C57B16 mice, oral
Procedure: (§1) At 1-hour post oral treatment with either vehicle hydroxypropyl methylcellulose (HPMC) or E1, C57B16 mice were anaesthetized under isofluorane by inhalation. An H1 specific receptor antagonist desloratadine (5 mg/kg) was used as a positive control. The left hind knee was shaved, dampened with 70% ethanol and injected intra articularly into the knee joint (6 μl volume) with either saline or histamine (5 μM) using a glass Hamilton syringe and 30-gauge needle. Mice were allowed to recover in their home cage and kept on study for 48 hours post injection and dosed with compound.
(§2) After synovial lavage, the joint was disarticulated and cartilage was removed with a scalpel from the tibial plateau & femoral condyle, taking care to minimise the amounts of bone. Cartilage samples were weighed and snap frozen. The cartilage from individual animals was extracted in 200 μl high salt buffer (HSB) overnight at 4° C. with gentle agitation.
(§3) Samples were centrifuged at 10000 rpm for 10 min and the HSB cartilage extract decanted and stored at −80° C. prior to analysis.
MMP13 fluorokine ELISA (96-Well Plate Format)
HSB cartilage extracts were tested in duplicate at a 1:5 dilution. There were no deviations from the kit instructions (F13M00, R&D Systems) and the plate was read using an excitation wavelength of 320 nm and an emission wavelength of 405 nm.

Human dose prediction = settings: used for human Vss estimate
Excerpt: Human dose prediction for clinical studies requires an estimate of human PK parameters important for defining the elimination T1/2 and the shape and magnitude of the plasma concentration vs time profile at a particular dose. These estimated parameters include Clearance, Volume of Distribution at Steady State (Vss), absorption rate constant (Ka), bioavailability (F) and dosing frequency. Human dose predictions also require some pharmacological evidence as to how exposure relates to efficacy (McGinnity, Collington, Austin & Riley, Current Drug Metabolism 2007 8 463-479).
Having defined the shape and magnitude of the human plasma concentration vs time curve, the final step was to adjust the dose so that plasma concentrations are attained that are likely to achieve efficacy. […] It was impossible to quantify the compound at these dose levels; consequently plasma concentrations observed at a higher oral dose (about 1 mg/kg) were extrapolated down to that likely at efficacious doses, assuming linear kinetics between the two. Finally, in the absence of a real PK/PD relationship in the mouse, it was assumed that efficacy in humans would be related to plasma AUC. Consequently, the human dose was adjusted to give, in conjunction with the estimated human PK parameters defined above, a human AUC value similar to that observed in mouse at efficacious doses.

[3] = rat, in vivo
Excerpt: as §4

[4] = Mouse PK in low dose pharmacodynamic study (micro-sampling, LC-MS/MS); type: in vivo; settings: mice, oral 0.1, 0.001 and 0.0001 mg/kg b.i.d. for 48 hrs, blood
Procedure: Mice were weighed and orally dosed according to weight at a dose volume of 10 ml/kg (dosed at 0.1 mg/kg, 0.001 mg/kg and 0.0001 mg/kg b.i.d. for 48 hrs). The PK and low dose pharmacodynamic studies were performed in the same group of animals.
Individual mice were repeatedly sampled at various timepoints over the 48 hr duration of the study by taking small volumes of blood by micro-sampling technique. After heating and mild restrain behind a Perspex stand, the tip of the tail was pricked with a 24 gauge needle and whole blood collected into an EDTA 20 μl glass micro sampling tubes. The 20 μl blood sample was then mixed with 80 μls of distilled water and frozen until analysis.
At study termination the mice were culled using CO2 gas. A blood volume of about 0.4 mL was obtained by cardiac puncture. A volume of whole blood was then mixed with distilled water to lyse the cells (ratio 1:1) and stored for analysis.

[5] = In vivo PK in dog (Vss, Fabs)
Excerpt: as §4

in vivo [6] = settings: guinea pig
Excerpt: as §4

[7] = test system: S-GAG (aggrecanase activity); assay: Histamine induced acute articular inflammation in mouse: S-GAG analysis (DMMB assay) of cartilage extract; type: in vivo; settings: C57B16 mice, oral
Procedure: as §1, §2, §3
HSB cartilage extracts were digested with hyaluronidase (110 units/ml) 37° C. for 3 hrs followed by papain digestion at 60° C. overnight. Digested samples were then centrifuged at 12000 g for 15 minutes. […] The plate was read immediately at 532 nm and 620 nm wavelengths and data calculated as O.D 532 nm/O.D 620 nm minus background. […]

Work on `CNCc1ccc(-c2cnc3c(c2)C[C@@]2(CN4CCC2CC4)O3)s1` [Example E1, N-methyl-1-{5-[(2R)-3′H-spiro[4-azabicyclo[2.2.2]octane-2,2′-furo[2,3-b]pyridin]-5′-yl]-2-thienyl}methanamine] yielded a concentration at 0 h (in vivo [1]; 0.001 mg/kg) of 0.0003 nM, a concentration at 0.17 h (in vivo [1]; 0.001 mg/kg) of 0.0017 nM and a concentration at 0.33 h (in vivo [1]; 0.001 mg/kg) of 0.0058 nM. For the same compound, the concentration at 0.5 h (in vivo [1]; 0.001 mg/kg) was 0.0081 nM, the concentration at 0.75 h (in vivo [1]; 0.001 mg/kg) was 0.0119 nM and the concentration at 1 h (in vivo [1]; 0.001 mg/kg) was 0.0156 nM. For the same compound, the concentration at 2 h (in vivo [1]; 0.001 mg/kg) was 0.0266 nM, the concentration at 4 h (in vivo [1]; 0.001 mg/kg) was 0.0326 nM and the concentration at 6 h (in vivo [1]; 0.001 mg/kg) was 0.0332 nM. It also gave a concentration at 8 h (in vivo [1]; 0.001 mg/kg) of 0.0349 nM, a concentration at 10 h (in vivo [1]; 0.001 mg/kg) of 0.0297 nM and a concentration at 12 h (in vivo [1]; 0.001 mg/kg) of 0.0284 nM. For the same compound, the concentration at 24 h (in vivo [1]; 0.001 mg/kg) was 0.0172 nM, the concentration at 0 h (in vivo [1]; 0.01 mg/kg) was 0 nM and the concentration at 0.17 h (in vivo [1]; 0.01 mg/kg) was 0.02 nM. It also gave a concentration at 0.33 h (in vivo [1]; 0.01 mg/kg) of 0.06 nM, a concentration at 0.5 h (in vivo [1]; 0.01 mg/kg) of 0.08 nM and a concentration at 0.75 h (in vivo [1]; 0.01 mg/kg) of 0.12 nM. The concentration at 1 h (in vivo [1]; 0.01 mg/kg) was 0.16 nM, the concentration at 2 h (in vivo [1]; 0.01 mg/kg) was 0.27 nM and the concentration at 4 h (in vivo [1]; 0.01 mg/kg) was 0.33 nM. The concentration at 6 h (in vivo [1]; 0.01 mg/kg) was 0.33 nM, the concentration at 8 h (in vivo [1]; 0.01 mg/kg) was 0.35 nM and the concentration at 10 h (in vivo [1]; 0.01 mg/kg) was 0.3 nM. The concentration at 12 h (in vivo [1]; 0.01 mg/kg) was 0.28 nM, the concentration at 24 h (in vivo [1]; 0.01 mg/kg) was 0.17 nM and the concentration at 0 h (in vivo [1]; 0.03 mg/kg) was 0.01 nM. For the same compound, the concentration at 0.17 h (in vivo [1]; 0.03 mg/kg) was 0.05 nM, the concentration at 0.33 h (in vivo [1]; 0.03 mg/kg) was 0.17 nM and the concentration at 0.5 h (in vivo [1]; 0.03 mg/kg) was 0.24 nM. For the same compound, the concentration at 0.75 h (in vivo [1]; 0.03 mg/kg) was 0.36 nM, the concentration at 1 h (in vivo [1]; 0.03 mg/kg) was 0.47 nM and the concentration at 2 h (in vivo [1]; 0.03 mg/kg) was 0.8 nM. The concentration at 4 h (in vivo [1]; 0.03 mg/kg) was 0.98 nM, the concentration at 6 h (in vivo [1]; 0.03 mg/kg) was 1 nM and the concentration at 8 h (in vivo [1]; 0.03 mg/kg) was 1.05 nM. For the same compound, the concentration at 10 h (in vivo [1]; 0.03 mg/kg) was 0.89 nM, the concentration at 12 h (in vivo [1]; 0.03 mg/kg) was 0.85 nM and the concentration at 24 h (in vivo [1]; 0.03 mg/kg) was 0.52 nM. For the same compound, the concentration at 0 h (in vivo [1]; 0.1 mg/kg) was 0.03 nM, the concentration at 0.17 h (in vivo [1]; 0.1 mg/kg) was 0.17 nM and the concentration at 0.33 h (in vivo [1]; 0.1 mg/kg) was 0.58 nM. The concentration at 0.5 h (in vivo [1]; 0.1 mg/kg) was 0.81 nM, the concentration at 0.75 h (in vivo [1]; 0.1 mg/kg) was 1.19 nM and the concentration at 1 h (in vivo [1]; 0.1 mg/kg) was 1.56 nM. For the same compound, the concentration at 2 h (in vivo [1]; 0.1 mg/kg) was 2.66 nM, the concentration at 4 h (in vivo [1]; 0.1 mg/kg) was 3.26 nM and the concentration at 6 h (in vivo [1]; 0.1 mg/kg) was 3.32 nM. The concentration at 8 h (in vivo [1]; 0.1 mg/kg) was 3.49 nM, the concentration at 10 h (in vivo [1]; 0.1 mg/kg) was 2.97 nM and the concentration at 12 h (in vivo [1]; 0.1 mg/kg) was 2.84 nM. The concentration at 24 h (in vivo [1]; 0.1 mg/kg) was 1.72 nM, the AUC (in vivo [1]; po, 0.001 mg/kg) was 0.29 nM·h and the Cmax (in vivo [1]; po, 0.001 mg/kg) was 0.035 nM. It also gave an AUC (in vivo [1]; po, 0.01 mg/kg) of 2.94 nM·h, a Cmax (in vivo [1]; po, 0.01 mg/kg) of 0.349 nM and an AUC (in vivo [1]; po, 0.03 mg/kg) of 8.81 nM·h. It also gave a Cmax (in vivo [1]; po, 0.03 mg/kg) of 1.05 nM, an AUC (in vivo [1]; po, 0.1 mg/kg) of 29.4 nM·h and a Cmax (in vivo [1]; po, 0.1 mg/kg) of 3.49 nM. For the same compound, the AUC (in vivo [1]; po, 1 mg/kg) was 294 nM·h, the Cmax (in vivo [1]; po, 1 mg/kg) was 35 nM and the concentration at 0 h (in vivo [1]; po, 1 mg/kg) was 0.31 nM. It also gave a concentration at 0.17 h (in vivo [1]; po, 1 mg/kg) of 1.65 nM, a concentration at 0.33 h (in vivo [1]; po, 1 mg/kg) of 5.75 nM and a concentration at 0.5 h (in vivo [1]; po, 1 mg/kg) of 8.08 nM. For the same compound, the concentration at 0.75 h (in vivo [1]; po, 1 mg/kg) was 11.9 nM, the concentration at 1 h (in vivo [1]; po, 1 mg/kg) was 15.6 nM and the concentration at 2 h (in vivo [1]; po, 1 mg/kg) was 26.6 nM. It also gave a concentration at 4 h (in vivo [1]; po, 1 mg/kg) of 32.6 nM, a concentration at 6 h (in vivo [1]; po, 1 mg/kg) of 33.2 nM and a concentration at 8 h (in vivo [1]; po, 1 mg/kg) of 34.9 nM. For the same compound, the concentration at 10 h (in vivo [1]; po, 1 mg/kg) was 29.7 nM, the concentration at 12 h (in vivo [1]; po, 1 mg/kg) was 28.4 nM and the concentration at 24 h (in vivo [1]; po, 1 mg/kg) was 17.2 nM. The Vd (in vivo [2]) was 35.5 L/kg, the “cartilage extract MMP13 levels” value (MMP13; 0.0001 mg/kg b.i.d. for 48 hrs (further study, FIG. 6)) was “decreased levels of MMP13” and the “cartilage extract MMP13 levels” value (MMP13; 0.001 mg/kg b.i.d. for 48 hrs (further study, FIG. 6)) was “decreased levels of MMP13”. For the same compound, the “cartilage extract MMP13 levels” value (MMP13; 0.1 mg/kg b.i.d. for 48 hrs (further study, FIG. 6)) was “decreased levels of MMP13”, the “cartilage extract MMP13 levels” value (MMP13; 0.1 mg/kg b.i.d. for 48 hrs, tibial cartilage (first study, FIG. 4)) was “decreased levels of MMP13” and the “cartilage extract MMP13 levels” value (MMP13; 1 mg/kg b.i.d. for 48 hrs, tibial cartilage) was “decreased levels of MMP13”. The “cartilage extract MMP13 levels” value (MMP13; 1 mg/kg once over the 48 hr study period, tibial cartilage) was “decreased levels of MMP13”, the “dose at which efficacy against MMP down-regulation and joint swelling was observed (as low as)” value (MMP13; mouse PD studies) was 0.1 µg/kg and the “Vss derived by simple allometry across rat and dog” value (Human dose prediction) was 5.7 L/kg. The “Fabs (fraction absorbed)” value [3] was 83%, the circulating levels [4] was “could not be detected in many animals” and the “Fabs (fraction absorbed)” value ([5]; dog) was 70%. For the same compound, the Vd ([5]; dog in vivo) was 27 L/kg, the Vd (in vivo [6]) was 10.2 L/kg and the S-GAG cartilage levels ([7]; 1 mg/kg b.i.d. for 48 hrs) was “significantly reduced”. For the same compound, the S-GAG cartilage levels ([7]; 1 mg/kg single dose over 48 hr) was “significantly reduced”.
